Like-named read-outs stand apart in the source and are kept apart here.
Experiments:
[1] = CER-001 as carrier for ophthalmic drugs: appearance of samples after thermal cycling; type: physicochemical
Protocol: A solution of CER-001 was mixed with azithromycin to provide a final azithromycin concentration of 10 mg/ml and subjected to five heating and cooling cycles from 37° C. to 55° C. to promote complexation of azithromycin to CER-001. For controls, a sample of CER-001 without added azithromycin and a sample of azithromycin at a concentration of 10 mg/ml in phosphate buffered saline (PBS) were similarly subjected to five heating and cooling cycles from 37° C. to 55° C.
A solution of CER-001 was mixed with spironolactone to provide a final spironolactone concentration of 1.5 mg/ml and subjected to five heating and cooling cycles from 37° C. to 55° C. to promote complexation of spironolactone to CER-001. For controls, a sample of CER-001 without added spironolactone and a sample of spironolactone at a concentration of 1.5 mg/ml in phosphate buffered saline (PBS) were similarly subjected to five heating and cooling cycles from 37° C. to 55° C.
A solution of CER-001 was mixed with cyclosporine to provide a final cyclosporine concentration of 1 mg/ml and subjected to five heating and cooling cycles from 37° C. to 55° C. to promote complexation of cyclosporine to CER-001. For controls, a sample of CER-001 without added cyclosporine and a sample of cyclosporine at a concentration of 1 mg/ml in phosphate buffered saline (PBS) were similarly subjected to five heating and cooling cycles from 37° C. to 55° C.

eyes of albino rabbits = type: in vivo; details: for ocular tolerance: albino rabbits, CER-001 8 mg/ml (protein weight basis)
[2] = tested on: endotoxin-induced uveitis (severe inflammation); type: in vivo; details: albino rabbits
Protocol: CER-001 vehicle and Solu-Medrol®, an injectable formulation containing the anti-inflammatory glucocorticoid methylprednisolone sodium succinate, were included as controls. Tolerance was assessed by the McDonald-Shadduck scoring system (see, Eaton et al., Journal of Ocular Pharmacology and Therapeutics 33(10):718-734) 6 and 24 hours after administration. Cell infiltration and protein content in the aqueous humor were measured 24 hours after administration.

[3] = tested on: vision impairment related to LCAT deficiency (ocular lipid deposits); assay: CER-001 therapy for LCAT deficiency-related vision impairment; type: in vivo, human
Protocol: A subject with LCAT deficiency and having vision impairment related to the subject's LCAT deficiency (said vision impairment being due to ocular lipid deposits) was administered CER-001 according to a treatment regimen comprising an induction regimen, a consolidation regimen, and a maintenance regimen.
Prior to treatment with CER-001, the subject had ocular lipid deposits presenting as white corneal ring opacities. The subject had normal visual acuity but visual blur, especially at night. […] Next-generation sequencing confirmed the subject as compound-heterozygous for two LCAT gene variations, but none in the ABCA1 or APOA1 genes. The first allele, motherly inherited, is an exon-5 (c.605T>C) missense mutation p.(Ile202Thr), previously well-established as familial LCAT deficiency (FLD)-causing in Europe. The paternal allele (c.154+5G>C), was novel and absent from general referral population databases. It alters a highly evolutionary-conserved residue of intron-1 donor splice-site, thereby potentially altering exon-1 mRNA-splicing and creating a cryptic acceptor splice-site at position c.154+15. […]
The induction regimen comprised nine doses of CER-001 administered over three weeks. The dose of CER-001 administered in the […] regimen was 10 mg/kg, calculated based upon the amount of ApoA-I in the CER-001 administered and the weight of the subject.
Following the induction regimen, the subject was administered CER-001 according to a consolidation regimen comprising seven doses of CER-001 administered over four weeks. The dose of CER-001 administered in the […] regimen was 10 mg/kg, calculated based upon the amount of ApoA-I in the CER-001 administered and the weight of the subject.
Following the consolidation regimen, the subject was administered CER-001 according to a maintenance regimen comprising once a week administration of CER-001 for three weeks. The dose of CER-001 administered in the maintenance regimen was 10 mg/kg calculated based upon the amount of ApoA-I in the CER-001 to be administered and the weight of the subject. […]

With “CER-001: lipoprotein complex of ApoA-I and phospholipids, 1:2.7 lipoprotein weight:total phospholipid weight ratio, SM:DPPG weight ratio 97:3” the “appearance of sample following the heating and cooling cycles” value (shortened to “appearance”) ([1]; CER-001 without added drug, five heating and cooling cycles from 37° C. to 55° C.) was “remained clear”, the “complexation with ophthalmic drugs (summary of Example 1)” value ([1]; thermal cycling 37° C. to 55° C.) was “can complex with azithromycin, spironolactone, dexamethasone palmitate, and cyclosporine” and the ocular tolerance (eyes of albino rabbits; repeated topical administration of up to 8 drops) was “No tolerance issues were observed”. For the same compound, the ocular tolerance (eyes of albino rabbits; single intravitreal administration) was “No tolerance issues were observed”, the “ocular tolerance (statement referring to Examples 3 and 4)” value (eyes of albino rabbits; even with repeated administrations) was “good ocular tolerance” and the “cell infiltration in the aqueous humor” value ([2]; 24 hours after administration, FIG. 3A) was “positive effect”. The “protein in the aqueous humor” value ([2]; 24 hours after administration, FIG. 3B) was “positive effect”, the “tolerance (McDonald-Shadduck scoring system)” value ([2]; single intravitreal administration, including 8 mg/ml, 6 and 24 hours, FIGS. 2A-2C) was “induced significant tolerance” and the “visual blur at the end of the follow-up period” value ([3]; end of 3 months off-treatment follow-up) was “did not recur”. For the same compound, the “effect of administration on vision” value ([3]; one subject with LCAT deficiency, IV infusion 10 mg/kg, later 20 mg/kg, 5 months treatment) was “normalization of vision” and the “subject's vision during treatment” value ([3]; one subject with LCAT deficiency, IV infusion 10 mg/kg, later 20 mg/kg, induction, consolidation, maintenance, 5 months treatment) was “improved during the course of treatment”.

For `CC(=O)S[C@@H]1CC2=CC(=O)CC[C@]2(C)[C@H]2CC[C@@]3(C)[C@@H](CC[C@@]34CCC(=O)O4)[C@H]12` [spironolactone, reference compound], the “appearance” value ([1]; spironolactone 1.5 mg/ml in PBS, five cycles 37° C. to 55° C., FIG. 1B) was “contained numerous crystals in the liquid, on the glass tube, and above the meniscus”.

With `CC[C@H]1OC(=O)[C@H](C)[C@@H](O[C@H]2C[C@@](C)(OC)[C@@H](O)[C@H](C)O2)[C@H](C)[C@@H](O[C@@H]2O[C@H](C)C[C@H](N(C)C)[C@H]2O)[C@](C)(O)C[C@@H](C)CN(C)[C@H](C)[C@@H](O)[C@]1(C)O` [azithromycin, reference compound] the “appearance” value ([1]; azithromycin 10 mg/ml in PBS, five cycles 37° C. to 55° C., FIG. 1A) was “contained numerous crystals in the liquid and on the glass tube”.

— patent publication US20240000948A1, “METHODS FOR TREATING EYE DISEASES USING LIPID BINDING PROTEIN-BASED COMPLEXES” (ABIONYX PHARMA SA, priority 2020, published 2024)
